The record followed here is US10961238B2, “Modulators of hedgehog (Hh) signaling pathway” (E-THERAPEUTICS PLC, priority 2016, dated 2021).

The test system of one assay is C3H10T1/2 cells. The assay is described as follows: C3H assay: differentiation of C3H10T1/2 cells by mSHH, measurement of alkaline phosphatase. The assay is classed as cell-based, mouse. Conditions: Mus musculus, C3H 10T1/2; C3H10T1/2 cells stimulated with mSHH for 72 hours; alkaline phosphatase activity; read-out: IC50 Ranges.
For the next assay, the target named is T1, SMO (Homo sapiens, UniProt Q99835).
T1 construct: expressed in transfected cells; host or cells: HEK293
T1 sequence (Q99835 28-787): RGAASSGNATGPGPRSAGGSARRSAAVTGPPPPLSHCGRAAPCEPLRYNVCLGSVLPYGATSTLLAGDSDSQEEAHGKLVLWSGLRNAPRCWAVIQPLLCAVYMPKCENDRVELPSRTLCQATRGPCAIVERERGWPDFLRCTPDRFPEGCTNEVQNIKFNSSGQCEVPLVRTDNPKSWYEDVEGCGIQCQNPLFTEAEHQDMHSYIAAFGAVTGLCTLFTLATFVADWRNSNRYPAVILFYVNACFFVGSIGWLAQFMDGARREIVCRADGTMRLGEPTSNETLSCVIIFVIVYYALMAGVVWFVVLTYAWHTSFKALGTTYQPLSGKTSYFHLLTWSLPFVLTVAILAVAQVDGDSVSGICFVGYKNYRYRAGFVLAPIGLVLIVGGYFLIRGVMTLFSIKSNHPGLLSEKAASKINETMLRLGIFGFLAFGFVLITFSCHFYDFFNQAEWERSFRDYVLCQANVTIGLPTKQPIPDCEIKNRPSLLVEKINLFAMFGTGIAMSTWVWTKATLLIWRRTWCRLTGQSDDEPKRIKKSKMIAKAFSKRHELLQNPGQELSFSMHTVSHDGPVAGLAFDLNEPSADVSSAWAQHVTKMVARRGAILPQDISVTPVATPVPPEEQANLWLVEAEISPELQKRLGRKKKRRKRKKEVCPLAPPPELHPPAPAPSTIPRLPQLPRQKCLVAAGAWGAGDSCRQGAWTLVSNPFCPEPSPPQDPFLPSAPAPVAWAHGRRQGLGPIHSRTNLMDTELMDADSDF
Description: Smoothened (SMO) binding fluorescence polarisation assay (BODIPY-cyclopamine competition). To be noted: SMO binding FP assay versus C3H10T1/2 cellular assay. The procedure:
Standard Protocol for Smoothened (SMO) Binding Fluorescence Polarisation Assay.
The assay measures the ability of the test compounds to compete with a fluorescently-labelled version of the known ligand, cyclopamine, for binding to SMO. The fluorescent tag used is BODIPY (boron dipyrromethene).
An aliquot of a membrane preparation from a SMO-over-expressing HEK293 cell line is diluted to protein concentration of 0.117 mg/ml in assay buffer (25 mM HEPES, 2 mM EDTA, 0.05% γ-globulin, 0.01% pluronic acid pH7.4, plus protease Inhibitor cocktail). 8.5 μl of the membrane suspension is added to each well of a black, low volume 384 well microtitre plate.
Test compounds are added in a seven point dilution range to the wells containing the membrane preparation. The final DMSO solvent concentration in the wells is maintained at 0.3%. 6.5 μl of a 6.9 nM BODIPY-cyclopamine solution is added to each of the wells (final assay concentration 3 nM).
The plate is sealed and stored in the dark at room temperature for 24 hours prior to measurement of the fluorescence polarisation signal on a Perkin Elmer Envision multi-label reader.
Table 4 below details the ratio of SMO binding compared to the potency in the C3H10T1/2 cellular assay. The small ratio between SMO binding and potency for vismodegib is considered to be reflective of the fact vismodegib acts mainly through inhibition of the SMO protein. The larger ratios for the compound of the invention are considered to be reflective of alternate actions outside of direct SMO inhibition.

Consider `CC(C)(C)OC(=O)N1CC(S(=O)(=O)N2CCC(c3coc4cccnc34)CC2)C1` [Compound 131, tert-Butyl 3-[(4-furo[3,2-b]pyridin-3-yl-1-piperidyl)sulfonyl]azetidine-1-carboxylate], for which the IC50 in the assay with C3H10T1/2 cells was 0.01 to 0.1 µM. In addition, the “Ratio of potency in SMO binding assay to potency in C3H10T1/2 cellular assay” value (“Ratio of potency in SMO binding assay” for short) on SMO was determined as 84.

As for `CC(C)(C)OC(=O)N1CC(S(=O)(=O)N2CC=C(c3c[nH]c4ncccc34)CC2)C1` [Compound 228, tert-butyl 3-[[4-(1H-pyrrolo[2,3-b]pyridin-3-yl)-3,6-dihydro-2H-pyridin-1-yl]sulfonyl] azetidine-1-carboxylate], in the assay on C3H10T1/2 cells, the IC50 lay in the range of 0.1 to 1 µM. Further, at SMO, the “Ratio of potency in SMO binding assay” value was 20.

With `O=C(OC[C@H]1CCCO1)N1CC(S(=O)(=O)N2CCC(c3c[nH]c4ncccc34)CC2)C1` [Compound 162, [(2R)-oxolan-2-yl]methyl 3-[4-(1H-pyrrolo[2,3-b]pyridin-3-yl)piperidin-1-yl]sulfonylaze-tidine-1-carboxylate], in the assay on C3H10T1/2 cells, the IC50 lay in the range of 0.01 to 0.1 µM. Further, the “Ratio of potency in SMO binding assay” value at SMO is 20.

As for `CC(C)(C)NC(=O)N1CC(S(=O)(=O)N2CCC(c3ccc(Cl)cc3)CC2)C1` [Compound 319, N-tert-butyl-3-[4-(4-chlorophenyl)piperidin-1-yl]sulfonylaze-tidine-1-carboxamide], the 50% inhibitory concentration (IC50) in the assay with C3H10T1/2 cells fell in the range of 0.01 to 0.1 µM. The “Ratio of potency in SMO binding assay” value at SMO is 2.9.

`O=S(=O)(C1CN(CC2(C(F)(F)F)CC2)C1)N1CCC(c2c[nH]c3ncccc23)CC1` [Compound 313, 3-[1-[1-[[1-(trifluoromethyl)cyclopropyl]methyl]azetidin-3-yl]sulfonylpiperidin-4-yl]-1H-pyrrolo[2,3-b]pyridine]: the IC50 in the assay on C3H10T1/2 cells was in the range of 0.1 to 1 µM. At SMO, the “Ratio of potency in SMO binding assay” value was found to be 2.7.

`Cc1noc(C)c1CNC(=O)C1CC(S(=O)(=O)N2CCC(c3c[nH]c4ncccc34)CC2)C1` (stereo not shown) [Compound 284, N-[(3,5-dimethyl-1,2-oxazol-4-yl)methyl]-3-[4-(1H-pyrrolo [2,3-b]pyridin-3-yl)piperidin-1-yl]sulfonylcycl obutane-1-carboxamide]: in the assay on C3H10T1/2 cells, the IC50 was in the range of 0.1 to 1 µM. The “Ratio of potency in SMO binding assay” value at SMO is on record as 2.3.

Take `CC(C)OC(=O)N1CC(S(=O)(=O)N2CCC(c3c[nH]c4ncccc34)CC2)C1` [Compound 97, propan-2-yl 3-[4-(1H-pyrrolo[2,3-b]pyridin-3-yl)piperidin-1-yl]sulfonylaze-tidine-1-carboxylate]: in the assay with C3H10T1/2 cells, the concentration for half-maximal inhibition (IC50) lay in the range of 0.1 to 1 µM. Moreover, the “Ratio of potency in SMO binding assay” value at SMO is on record as 22.

Turning to `CC(C)(C)C(=O)CN1CC(S(=O)(=O)N2CCC(c3ccc(Cl)cc3)CC2)C1` [Compound 396, 1-[3-[4-(4-chlorophenyl)piperidin-1-yl]sulfonylaze-tidin-1-yl]-3,3-dimethylbutan-2-one], the IC50 in the assay on C3H10T1/2 cells was 0.1 to 1 µM. For the same compound, the “Ratio of potency in SMO binding assay” value at SMO turned out to be 2.5.

Regarding `C[C@](O)(C(=O)N1CC(S(=O)(=O)N2CCC(c3coc4cccnc34)CC2)C1)C(F)(F)F` [Compound 395, (2S)-3,3,3-trifluoro-1-[3-(4-furo[3,2-b]pyridin-3-ylpiperidin-1-yl)sulfonyl-azetidin-1-yl]-2-hydroxy-2-methylpropan-1-one], the IC50 in the assay on C3H10T1/2 cells was in the range of 0.1 to 1 µM. The “Ratio of potency in SMO binding assay” value at SMO is given as 2.6.

Turning to `Cc1ccc2c(C3CCN(S(=O)(=O)C4CN(C(=O)OC(C)(C)C)C4)CC3)c[nH]c2n1` [Compound 347, tert-butyl 3-[4-(6-methyl-1H-pyrrolo [2,3-b]pyridin-3-yl)piperidin-1-yl]sulfonylaze-tidine-1-carboxylate], the IC50 in the assay on C3H10T1/2 cells is 0.01 to 0.1 µM. For the same compound, on SMO, the “Ratio of potency in SMO binding assay” value is listed as 3.8.

Consider `C[C@](O)(C(=O)N1CC(S(=O)(=O)N2CCC(c3c[nH]c4ncccc34)CC2)C1)C(F)(F)F` [Compound 388, (2S)-3,3,3-trifluoro-2-hydroxy-2-methyl-1-[3-[4-(1H-pyrrolo[2,3-b]pyridin-3-yl)piperidin-1-yl]sulfonylaze-tidin-1-yl]propan-1-one], for which, in the assay with C3H10T1/2 cells, the IC50 was in the range of 0.01 to 0.1 µM. Further, the “Ratio of potency in SMO binding assay” value on SMO was found to be 5.4.

With `O=C(NC1(C(F)(F)F)CC1)[C@H]1C[C@H](S(=O)(=O)N2CCC(c3c[nH]c4ncccc34)CC2)C1` [Compound 298, trans-3-[4-(1H-pyrrolo[2,3-b]pyridin-3-yl)piperidin-1-yl]sulfonyl-N-[1-(trifluoromethyl)cyclopropyl] cyclobutane-1-carboxamide], the IC50 in the assay on C3H10T1/2 cells lay in the range of 0.1 to 1 µM. Further, the “Ratio of potency in SMO binding assay” value on SMO was found to be 4.9.

For the compound `O=C(CC(O)(C(F)(F)F)C(F)(F)F)N1CC(S(=O)(=O)N2CCC(c3ccncc3)CC2)C1` [Compound 401, 4,4,4-trifluoro-3-hydroxy-1-[3-(4-pyridin-4-ylpiperidin-1-yl)sulfonylaze-tidin-1-yl]-3-(trifluoromethyl) butan-1-one], the IC50 in the assay with C3H10T1/2 cells was 0.1 to 1 µM. Besides, the “Ratio of potency in SMO binding assay” value on SMO is recorded as 3.0.

For the compound `CC(C)(C)OC(=O)N1CC(S(=O)(=O)N2CCC(c3ccnc4ccccc34)CC2)C1` [Compound 410, tert-butyl 3-(4-quinolin-4-ylpiperidin-1-yl)sulfonylaze-tidine-1-carboxylate], the IC50 with C3H10T1/2 cells is 0.1 to 1 µM. Moreover, the “Ratio of potency in SMO binding assay” value at SMO stood at 3.1.

In the case of `CC1(C)COCC(C)(C)N1C(=O)N1CC(S(=O)(=O)N2CCC(c3cnc4occc4c3)CC2)C1` [Compound 34, [3-(4-furo[2,3-b]pyridin-5-ylpiperidin-1-yl)sulfonylaze-tidin-1-yl]-(3,3,5,5-tetramethylmor-pholin-4-yl)methanone], in the assay on C3H10T1/2 cells, the IC50 is 0.01 to 0.1 µM. Also, the “Ratio of potency in SMO binding assay” value on SMO turned out to be 21.

`Cc1ccc(S(=O)(=O)n2ccc3c(C4=CCN(S(=O)(=O)C5CCN(C(=O)OC(C)(C)C)CC5)CC4)ncnc32)cc1` [Compound 239, tert-butyl 4-[[4-[7-(4-methylphenyl)sulfonylpyrrolo[2,3-d]pyrimidin-4-yl]-3,6-dihydro-2H-pyridin-1-yl]sulfonyl] piperidine-1-carboxylate]: in the assay on C3H10T1/2 cells, the IC50 fell in the range of 0.1 to 1 µM. Moreover, the “Ratio of potency in SMO binding assay” value at SMO is reported as above 37.

On to `C[C@@H](NC(=O)N1CC(S(=O)(=O)N2CCC(c3coc4cccnc34)CC2)C1)C(F)(F)F` [Compound 328, 3-(4-furo[3,2-b]pyridin-3-ylpiperidin-1-yl)sulfonyl-N-[(2R)-1,1,1-trifluoropropan-2-yl]azetidine-1-carboxamide], for which the IC50 in the assay with C3H10T1/2 cells was in the range of 0.01 to 0.1 µM. Besides, the “Ratio of potency in SMO binding assay” value on SMO amounted to 3.2.

Turning to `Cc1noc(C)c1NC(=O)N1CC(S(=O)(=O)N2CCC(c3nc4ccccc4s3)CC2)C1` [Compound 294, 3-[4-(1,3-benzothiazol-2-yl)piperidin-1-yl]sulfonyl-N-(3,5-dimethyl-1,2-oxazol-4-yl)azetidine-1-carboxamide], in the assay on C3H10T1/2 cells, the IC50 was 0.1 to 1 µM. Moreover, at SMO, the “Ratio of potency in SMO binding assay” value stood at 5.0.

As for `COC(=O)c1cnc2[nH]cc(C3CCN(S(=O)(=O)C4CCN(C(=O)OC(C)(C)C)CC4)CC3)c2c1` [Compound 16, methyl 3-[1-[1-[(2-methylpropan-2-yl)oxycarbonyl]piperidin-4-yl]sulfonylpiper-idin-4-yl]-1H-pyrrolo[2,3-b]pyridine-5-carboxylate], the IC50 in the assay with C3H10T1/2 cells was 0.1 to 1 µM. For the same compound, the “Ratio of potency in SMO binding assay” value on SMO is given as above 78.

Consider `CC1(C)COCN1C(=O)N1CC(S(=O)(=O)N2CCC(c3c[nH]c4ncccc34)CC2)C1` [Compound 256, (4,4-dimethyl-1,3-oxazolidin-3-yl)-[3-[4-(1H-pyrrolo[2,3-b]pyridin-3-yl)piperidin-1-yl]sulfonylaze-tidin-1-yl]methanone], for which the concentration for half-maximal inhibition (IC50) with C3H10T1/2 cells lay within 0.01 to 0.1 µM. At SMO, the “Ratio of potency in SMO binding assay” value worked out at 2.7.

In the case of `O=C(NCCS(=O)(=O)N1CCC(c2c[nH]c3ncccc23)CC1)OC1CCCCC1` [Compound 292, cyclohexyl N-[2-[4-(1H-pyrrolo-[2,3-b]pyridin-3-yl)piperidin-1-yl]sulfonylethyl] carbamate], the IC50 with C3H10T1/2 cells fell in the range of 0.1 to 1 µM. For the same compound, the “Ratio of potency in SMO binding assay” value on SMO was 4.3.

As to `O=C([C@H]1C[C@@H](S(=O)(=O)N2CCC(c3c[nH]c4ncccc34)CC2)C1)N1CCOCC1` [Compound 296, cis-morpholin-4-yl-[3-[4-(1H-pyrrolo[2,3-b]pyridin-3-yl)piperidin-1-yl]sulfonylcyclobutyl] methanone], in the assay with C3H10T1/2 cells, the IC50 lay in the range of 0.1 to 1 µM. Besides, at SMO, the “Ratio of potency in SMO binding assay” value stood at 3.8.

Consider `Cc1noc(C)c1NC(=O)C1CC(S(=O)(=O)N2CCC(c3c[nH]c4ncccc34)CC2)C1` (stereo not shown) [Compound 285, N-(3,5-dimethyl-1,2-oxazol-4-yl)-3-[4-(1H-pyrrolo [2,3-b]pyridin-3-yl)piperidin-1-yl]sulfonylcycl obutane-1-carboxamide], for which, in the assay with C3H10T1/2 cells, the IC50 was 0.01 to 0.1 µM. The “Ratio of potency in SMO binding assay” value at SMO turned out to be 2.9.
